The record followed here is ChEMBL document CHEMBL4382216, “Asymmetric synthesis and biological evaluation of imidazole- and oxazole-containing synthetic lipoxin A4 mimetics (sLXms)” (Eur J Med Chem, 2019).

The subject of one data set is HEK293. The data set can be described thus: Induction of intracellular calcium accumulation in HEK293 cells at 2 nM by Fluo-4 dye based fluorescence spectrophotometric assay. The data set is classed as functional, cell-based. Particulars: Homo sapiens.
Data set [1] addresses T1, N-formyl peptide receptor 2 (Homo sapiens) (UniProt P25090).
T1 sequence (whole entry): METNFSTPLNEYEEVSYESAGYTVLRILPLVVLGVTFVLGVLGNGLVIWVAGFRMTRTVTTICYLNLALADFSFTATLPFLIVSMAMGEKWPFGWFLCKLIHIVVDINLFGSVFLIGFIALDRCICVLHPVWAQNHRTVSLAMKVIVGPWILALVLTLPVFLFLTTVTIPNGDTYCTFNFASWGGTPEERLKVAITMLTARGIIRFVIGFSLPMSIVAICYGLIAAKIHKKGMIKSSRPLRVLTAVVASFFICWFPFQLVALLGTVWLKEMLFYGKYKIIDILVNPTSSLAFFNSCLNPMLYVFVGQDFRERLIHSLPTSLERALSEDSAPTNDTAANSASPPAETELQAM
The data set can be described thus: Agonist activity at ALX/FPR2 (unknown origin) expressed in HEK293 cells co-expressing Galphaq assessed as induction of intracellular calcium accumulation at 2 nM by Fluo-4 dye based fluorescence spectrophotometric assay. It counts as functional, cell-based.

The species entered for the next data set is Homo sapiens. The data set can be described thus: Activation of Luc-fused NFkB (unknown origin) expressed in non-stimulated human THP1 cells assessed as relative luminescence unit at 10^-12 M after 24 hrs by luciferase reporter gene assay (reference value: 100%). It counts as cell-based.
The target in data set [2] is T1, N-formyl peptide receptor 2 (Homo sapiens). Briefly: Agonist activity at ALX/FPR2 in human THP1 cells harboring NF-kB-Luc assessed as inhibition of LPS-induced NFkB signalling activation by measuring IL-12p70 secretion at 10^-12 M pretreated for 30 mins followed by LPS stimulation for 24 hrs by electrochemiluminescence assay (reference value: 100%). The arrangement: scale not given: the % may be the effect or the level left. It counts as cell-based.

Data set [3] has the same target. Briefly: Agonist activity at ALX/FPR2 in human THP1 cells harboring NF-kB-Luc assessed as inhibition of LPS-induced NFkB signalling activation by measuring TNFalpha secretion at 10^-12 M pretreated for 30 mins followed by LPS stimulation for 24 hrs by electrochemiluminescence assay (reference value: 100%). The arrangement: scale not given: the % may be the effect or the level left. It counts as cell-based.

Data set [4] shares this target. Briefly: Agonist activity at ALX/FPR2 in human THP1 cells harboring NF-kB-Luc assessed as inhibition of LPS-induced NFkB signalling activation by measuring IL-1beta secretion at 10^-12 M pretreated for 30 mins followed by LPS stimulation for 24 hrs by electrochemiluminescence assay (reference value: 100%). The arrangement: scale not given: the % may be the effect or the level left. It counts as cell-based.

For data set [5] the target is unchanged. Briefly: Agonist activity at ALX/FPR2 in human THP1 cells harboring NF-kB-Luc assessed as inhibition of LPS-induced NFkB signalling activation by measuring IL-6 secretion at 10^-12 M pretreated for 30 mins followed by LPS stimulation for 24 hrs by electrochemiluminescence assay (reference value: 100%). The data set is classed as cell-based. On the set-up: scale not given: the % may be the effect or the level left.

The target is the same in data set [6]. The data set can be described thus: Agonist activity at ALX/FPR2 in human THP1 cells harboring NF-kB-Luc assessed as inhibition of LPS-induced NFkB signalling activation by measuring NF-kB activation level at 10^-12 M pretreated for 30 mins followed by LPS stimulation for 24 hrs by luciferase reporter gene assay. The data set is classed as cell-based. On the set-up: scale not given: the % may be the effect or the level left.

For data set [7] the target is unchanged. The data set can be described thus: Agonist activity at ALX/FPR2 in human THP1 cells harboring NF-kB-Luc assessed as inhibition of LPS-induced NFkB signalling activation by measuring IFNgamma secretion at 10^-12 M pretreated for 30 mins followed by LPS stimulation for 24 hrs by electrochemiluminescence assay (reference value: 100%). On the set-up: scale not given: the % may be the effect or the level left. The data set is classed as cell-based.

For another data set, the system named is THP-1. The data set can be described thus: Cytotoxicity against human THP1 cells harboring NFkB-Luc assessed as LDH release at 10'12 M after 24 hrs by spectrophotometric method relative to control. It counts as cell-based. The conditions noted are these: thp-1, 24 h.

Structures are written as SMILES. Calls of active or inactive are those of the source. No cut-off for these calls is given here.

On to `CSCC[C@H](NC(=O)[C@@H](NC(=O)[C@H](CCSC)NC(=O)[C@H](Cc1ccc(O)cc1)NC(=O)[C@H](CCCCN)NC(=O)[C@@H](N)Cc1c[nH]c2ccccc12)C(C)C)C(=O)O`, for which the outcome with HEK293 was inactive. For the same compound, in [1], the outcome was Active.

Regarding `CCCCC[C@@H](O)c1ccccc1/C=C/[C@@H](O)[C@@H](O)CCCC(=O)OC`, the Activity turned out to be 2.9% in the data set filed under Homo sapiens; 62.9% in [2]; 64.2% in data set [3]; 39.7% in [4]; 61.1% in data set [5]; 80% in data set [6]. For the same compound, the Activity in [7] was 83.9%. In the data set with THP-1, the “fold change (FC)” value came out at 0.9.
